The source of these data is patent US12545686B2, “Polymorphic forms of (s)-n-(3-bromo-2-fluorophenyl)-7-((4-methylpiperazin-1-yl)methyl)-7,8-dihydro-[1,4]dioxino[2,3-g]quinazolin-4-amine as EGFR inhibitors” (ERASCA, INC., priority 2021, dated 2026).

One series in a line: Aqueous solubility. The format is physicochemical. The note with it: water, thermodynamic from solid.
A short description of series [1]: Approximate solubility by incremental addition of solvent. The format is physicochemical. The settings on record: for solubility: thermodynamic from solid; for solubility / Approximate solubility: room temperature. The procedure: Solubility: Approximate solubilities were determined by incremental addition of solvent to about 10 mg the compound. If the substance was not dissolved by addition of a total of at least 10 ml solvent, the solubility is indicated as <1 mg/ml. Due to the experimental error inherent in this method, the solubility values are intended to be regarded as rough estimates and are to be used solely for the design of crystallization experiments.
Approximate solubilities were determined for amorphous Compound (I) at room temperature. These values were obtained by addition of small aliquots of solvent to small amounts of solid to achieve dissolution by stirring or agitation for a short period of time. […] Ratios for solvent mixtures correspond to volume ratios.
Initially the tests were carried out with the amorphous form Compound (I) and later on, after stable crystalline Form D (Example 7 below) was discovered, some of the tests were repeated with the crystalline form. […] Antisolvents are water, heptane, and TBME. […] Based on available data and further experiments diisopropylether, cyclohexane and methylcyclohexane can also be used as antisolvents.

A short description of series [2]: pH dependent solubility tests in 0.1 M HCl, citrate buffer and USP phosphate buffers. The settings on record: for solubility: thermodynamic from solid. The class given is physicochemical. The procedure: pH dependent solubility tests were conducted in 0.1 M HCl, in citrate buffer, and in USP phosphate buffers with nominal pH values of 6.8 and 7.4. Solubility tests at pH values below 5 failed because all compounds dissolved during the equilibration phase.

The nature of series [3]: Dynamic vapor sorption (DVS), with PXRD and TG-FTIR of the post-DVS sample. The class given is physicochemical. The procedure:
Dynamic vapor sorption: DVS measurements were performed with an SPS11-100n “Sorptions Prifsystem” from ProUmid (formerly “Projekt Messtechnik”), August-Nagel-Str. 23, 89079 Ulm (Germany). About 5-20 mg of sample was put into an aluminum sample pan. Humidity change rates of 5% per hour were used. The applied measurement program is visualized in the figure (blue trace). The presentations showing the effective water content are corrected.
The sample was placed on an aluminum or platinum holder on top of a microbalance and allowed to equilibrate at 50% RH before starting the pre-defined humidity programs. The measurement program is visualized in the figures of the report.
Classification of Hygroscopicity: The hygroscopicity was classified based on the mass gain at 85% RH relative to the initial mass as follows: deliquescent (sufficient water adsorbed to form a liquid), very hygroscopic (mass increase of ≥15%), hygroscopic (mass increase <15% but ≥2%), slightly hygroscopic (mass increase <2% but ≥0.2%), or non-hygroscopic (mass increase <0.2%).

The nature of series [4]: Thermogravimetry coupled with FT-IR (TG-FTIR), decomposition. The format is physicochemical. The procedure: TG-FTIR: Thermogravimetric measurements were carried out with a Netzsch Thermo-Microbalance TG 209 coupled to a Bruker FTIR Spectrometer Vector 22 (sample pans with a pinhole, N2 atmosphere, heating rate 10 K/min).
The conditions of series [5]: as disclosed in WO 2020/190765; cited from earlier work.
The target in a further series is EGFR (Homo sapiens, UniProt P00533). The settings on record: as disclosed in WO 2020/190765; cited from earlier work.

In brackets after ≈: the same amount, converted by molar mass.

EGFR, sequence (P00533 25-1210): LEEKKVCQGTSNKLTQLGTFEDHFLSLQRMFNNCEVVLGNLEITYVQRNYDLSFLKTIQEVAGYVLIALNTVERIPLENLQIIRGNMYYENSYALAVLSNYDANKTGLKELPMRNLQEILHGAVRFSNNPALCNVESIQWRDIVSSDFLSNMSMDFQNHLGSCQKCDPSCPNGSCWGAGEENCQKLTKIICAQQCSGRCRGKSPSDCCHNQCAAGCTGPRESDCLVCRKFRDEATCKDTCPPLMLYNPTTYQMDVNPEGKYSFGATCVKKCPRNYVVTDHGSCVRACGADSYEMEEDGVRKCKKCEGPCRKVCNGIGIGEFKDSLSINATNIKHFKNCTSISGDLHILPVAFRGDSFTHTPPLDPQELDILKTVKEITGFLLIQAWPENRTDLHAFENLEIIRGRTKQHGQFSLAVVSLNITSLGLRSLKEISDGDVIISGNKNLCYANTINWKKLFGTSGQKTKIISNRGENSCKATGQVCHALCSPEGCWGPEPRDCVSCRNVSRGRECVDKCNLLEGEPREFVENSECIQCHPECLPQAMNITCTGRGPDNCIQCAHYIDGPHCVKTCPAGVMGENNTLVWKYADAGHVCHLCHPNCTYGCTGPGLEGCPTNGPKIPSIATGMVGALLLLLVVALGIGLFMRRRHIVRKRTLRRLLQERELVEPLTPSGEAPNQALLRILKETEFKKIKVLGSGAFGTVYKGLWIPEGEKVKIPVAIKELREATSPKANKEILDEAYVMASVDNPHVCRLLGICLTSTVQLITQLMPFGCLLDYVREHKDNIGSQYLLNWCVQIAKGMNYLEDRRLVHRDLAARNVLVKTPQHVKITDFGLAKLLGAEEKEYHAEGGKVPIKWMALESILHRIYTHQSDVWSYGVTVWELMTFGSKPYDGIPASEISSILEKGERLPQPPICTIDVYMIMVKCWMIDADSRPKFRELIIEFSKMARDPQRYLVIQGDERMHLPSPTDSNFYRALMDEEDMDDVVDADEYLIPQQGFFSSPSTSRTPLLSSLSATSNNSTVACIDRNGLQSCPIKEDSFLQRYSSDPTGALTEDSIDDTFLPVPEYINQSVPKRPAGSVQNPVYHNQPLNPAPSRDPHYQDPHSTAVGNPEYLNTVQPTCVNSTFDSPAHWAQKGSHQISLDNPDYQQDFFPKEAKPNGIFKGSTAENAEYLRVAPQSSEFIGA

Regarding `CN1CCN(C[C@H]2COc3cc4ncnc(Nc5cccc(Br)c5F)c4cc3O2)CC1` [Amorphous form, (S)—N-(3-bromo-2-fluorophenyl)-7-((4-methylpiperazin-1-yl)methyl)-7,8-dihydro-[1,4]dioxino[2,3-g]quinazolin-4-amine], the concentration in solution in the series “Aqueous solubility” (equilibration time 24 hours, pH 9.27) (solubility at 24 h) was 0.049 mg/mL (≈ 0.1 mM). In the series “Aqueous solubility” (equilibration time one hour, pH 9.16), this molecule gave a solubility at 1 h of 0.046 mg/mL (≈ 0.0942 mM). Also, the solubility is more than 100 mg/mL in series [1] (2-propanol, organic solvent or mixture, Propanol, 2-); more than 100 mg/mL in series [1] (MEK, organic solvent or mixture); approximately 2 mg/mL (≈ 4.1 mM) in series [1] (TBME, organic solvent or mixture); more than 130 mg/mL in series [1] (THF, organic solvent or mixture); approximately 2 mg/mL (≈ 4.1 mM) in series [1] (THF/n-heptane (1/1, v/v), organic solvent or mixture, THF/n-heptane (1/1)); more than 130 mg/mL in series [1] (acetic acid/water (1/3, v/v), aqueous with cosolvent or surfactant or cyclodextrin, Acetic acid/water (1/3)). Moreover, the solubility in series [1] (acetone, organic solvent or mixture) was more than 100 mg/mL; in series [1] (acetone/water (1/1, v/v), aqueous with cosolvent or surfactant or cyclodextrin, Acetone/water (1/1)) it was more than 120 mg/mL; in series [1] (acetonitrile/water (1/1, v/v), aqueous with cosolvent or surfactant or cyclodextrin, Acetonitrile/water (1/1)), more than 110 mg/mL; in series [1] (anisole, organic solvent or mixture), more than 160 mg/mL; in series [1] (dichloromethane, organic solvent or mixture) it was more than 100 mg/mL; in series [1] (ethanol, organic solvent or mixture), more than 100 mg/mL. Besides, the solubility in series [1] (ethanol/n-heptane (1/1, v/v), organic solvent or mixture, Ethanol/n-heptane (1/1)) is more than 130 mg/mL; in series [1] (ethanol/water (1/1, v/v), aqueous with cosolvent or surfactant or cyclodextrin, Ethanol/water (1/1)) it was more than 100 mg/mL; in series [1] (ethyl acetate, organic solvent or mixture) it was more than 100 mg/mL; in series [1] (methanol, organic solvent or mixture) it was more than 100 mg/mL; in series [1] (methanol/TBME (1/2, v/v), organic solvent or mixture, Methanol/TBME (1/2)), more than 140 mg/mL; in series [1] (n-heptane, organic solvent or mixture) it was less than 1 mg/mL. In addition, the solubility came to 0.316 mg/mL (≈ 0.647 mM) in series [2] (USP phosphate buffer (nominal pH 6.8), aqueous buffer, effective pH 6.95); 0.094 mg/mL (≈ 0.192 mM) in series [2] (USP phosphate buffer (nominal pH 7.4), pH 7.5, aqueous buffer, effective pH 7.50); 9.63 mg/mL (≈ 19.7 mM) in series [2] (citrate buffer, aqueous buffer, effective pH 6.25). Besides, the Approximate solubility entry in series [1] (Acetonitrile) was “S > 130 mg/ml”; in series [1] (Ethanol/n-heptane (1/3)), “S > 130 mg/ml”; in series [1] (Isopropyl acetate), “S~100 mg/ml”; in series [1] (Water), “S < 1 mg/ml”. Moreover, the “Solubility in the most common organic solvents (in words)” value in series [1] (acetic acid, ketones, alcohols, esters, dichloromethane and mixtures thereof) is “highly soluble”. Also, the Hygroscopicity classification entry in series [3] (DVS, classes based on mass gain at 85% RH relative to initial mass) is reported as “hygroscopic (hygroscopic (mass increase <15% but ≥2%))”. The “Solid form of the sample recovered post-DVS (PXRD)” value in series [3] (PXRD after DVS) is listed as “has not changed”. The “Water lost during DVS” value in series [3] (approximately same amount as during TG-FTIR) is “roughly 1.5%”. In addition, the “Water content at the end of the DVS test” value in series [3] (end of test) is “about 6.4%”. For the same molecule, in series [3] (high r.h. end), the “Water content at the high r.h. end during the DVS cycles” value was “about 15%”. The Decomposition temperature result in series [4] was “above 200 °C”.

For `CN1CCN(C[C@H]2COc3cc4ncnc(Nc5cccc(Br)c5F)c4cc3O2)CC1` [Compound (I), (S)—N-(3-bromo-2-fluorophenyl)-7-((4-methylpiperazin-1-yl)methyl)-7,8-dihydro-[1,4]dioxino[2,3-g]quinazolin-4-amine], in series [2] (in 1.0 ml of 0.1M HCl), the “Amount of compound that easily dissolves (approximate test)” value is not below 55 mg. In addition, in series [5], the Brain penetration capability entry is on record as “brain penetration capability”. In addition, the EGFR inhibitory activity entry at EGFR is “good EGFR inhibitory activity”.
